# Laboratory results taken from ChEMBL document CHEMBL3792299, “Novel tricyclics (e.g., GSK945237) as potent inhibitors of bacterial type IIA topoisomerases” (Bioorg Med Chem Lett, 2016).
# Active and inactive are the calls of the source. The rule behind the calls is not given here.
# Tests used:
# Haemophilus influenzae = assay: Antibacterial activity against Haemophilus influenzae H128 after 18 to 24 hrs by broth microdilution method; format: functional
# [1] = Inhibition of Haemophilus influenzae DNA gyrase-dependent DNA replication by scintillation proximity assay
# Staphylococcus aureus = assay: Antibacterial activity against Staphylococcus aureus WCUH 29 after 18 to 24 hrs by broth microdilution method; format: functional
# Streptococcus pneumoniae [2] = assay: Antibacterial activity against quinolone-resistant Streptococcus pneumoniae TPS3 after 18 to 24 hrs by broth microdilution method; format: functional
# Streptococcus pneumoniae [3] = assay: Antibacterial activity against quinolone-resistant Streptococcus pneumoniae TPS3 in rat respiratory tract infection model assessed as decrease in bacterial burden in lung at 50 mg/kg po bid administered through gavage at 1, 7, 24,31 hrs post infection measured after 48 hrs; format: functional, organism-based
# [4] = Terminal half life in Beagle dog at 3 mg/kg, iv administered as single dose by LC/MS/MS analysis; format: ADME, organism-based, Canis lupus familiaris; details: in vivo, read-out: beta t1/2 (converted)
# Rattus norvegicus [5] = assay: AUC in Sprague-Dawley rat at 5 mg/kg, po administered as single dose by LC/MS/MS analysis; format: ADME, organism-based; details: in vivo
# [6] = Terminal half life in Sprague-Dawley rat at 3 mg/kg, iv administered as single dose by LC/MS/MS analysis; format: ADME, organism-based; details: in vivo, read-out: beta t1/2 (converted)
# Rattus norvegicus [7] = assay: Blood clearance in Sprague-Dawley rat at 3 mg/kg, iv administered as single dose by LC/MS/MS analysis relative to hepatic blood flow; format: ADME, organism-based, Liver; details: in vivo
# Canis familiaris [8] = assay: Oral bioavailability in Beagle dog at 5 mg/kg administered as single dose by LC/MS/MS analysis; format: ADME, organism-based, Canis lupus familiaris; details: in vivo
# Liver microsome [9] = assay: Intrinsic clearance in Beagle dog liver microsomes assessed per gram of liver at 0.5 uM by LC/MS/MS analysis; format: ADME, Canis lupus familiaris
# Cynomolgus monkey [10] = assay: Oral bioavailability in cynomolgus monkey at 5 mg/kg administered as single dose by LC/MS/MS analysis; format: ADME, organism-based, Macaca fascicularis; details: in vivo
# [11] = Cmax in Sprague-Dawley rat at 100 mg/kg, po bid by LC/MS/MS analysis; format: ADME, organism-based; set-up: dose 100 mg/kg, route oral; details: in vivo
# Rattus norvegicus [12] = assay: Oral bioavailability in Sprague-Dawley rat at 5 mg/kg administered as single dose by LC/MS/MS analysis; format: ADME, organism-based; details: in vivo
# [13] = Cmax in cynomolgus monkey at 5 mg/kg, po administered as single dose by LC/MS/MS analysis; format: ADME, organism-based, Macaca fascicularis; set-up: dose 5 mg/kg, route oral; details: in vivo
# Canis familiaris [14] = assay: Blood clearance in Beagle dog at 3 mg/kg, iv administered as single dose by LC/MS/MS analysis relative to hepatic blood flow; format: ADME, organism-based, Canis lupus familiaris, Liver; details: in vivo
# [15] = Cmax in Beagle dog at 5 mg/kg, po administered as single dose by LC/MS/MS analysis; format: ADME, organism-based, Canis lupus familiaris; set-up: dose 5 mg/kg, route oral; details: in vivo
# Liver microsome [16] = assay: Intrinsic clearance in Sprague-Dawley rat liver microsomes assessed per gram of liver at 0.5 uM by LC/MS/MS analysis; format: ADME
# Canis familiaris [17] = assay: Renal clearance in Beagle dog at 3 mg/kg, iv administered as single dose by LC/MS/MS analysis relative to total clearance; format: ADME, organism-based, Canis lupus familiaris, Kidney; details: in vivo
# [18] = Plasma protein binding in cynomolgus monkey at 0.5 to 5 ug/ml by equilibrium dialysis method; format: ADME, cell-free, Macaca fascicularis; details: read-out: PPB (converted)
# Streptococcus pneumoniae [19] = assay: Antibacterial activity against quinolone-resistant Streptococcus pneumoniae TPS3 in rat respiratory tract infection model assessed as decrease in bacterial burden in lung at 100 mg/kg, po bid administered through gavage at 1, 7, 24,31 hrs post infection measured after 48 hrs; format: functional, organism-based
# Canis familiaris [20] = assay: AUC in Beagle dog at 5 mg/kg, po administered as single dose by LC/MS/MS analysis; format: ADME, organism-based, Canis lupus familiaris; details: in vivo
# [21] = Volume of distribution at steady state in cynomolgus monkey at 3 mg/kg, iv administered as single dose by LC/MS/MS analysis; format: ADME, organism-based, Macaca fascicularis; details: in vivo, read-out: Vdss
# Rattus norvegicus [22] = assay: AUC in Sprague-Dawley rat at 100 mg/kg, po bid by LC/MS/MS analysis; format: ADME, organism-based; details: in vivo
# Cynomolgus monkey [23] = assay: Blood clearance in cynomolgus monkey at 3 mg/kg, iv administered as single dose by LC/MS/MS analysis relative to hepatic blood flow; format: ADME, organism-based, Macaca fascicularis, Liver; details: in vivo
# Cynomolgus monkey [24] = assay: Renal clearance in cynomolgus monkey at 3 mg/kg, iv administered as single dose by LC/MS/MS analysis relative to total clearance; format: ADME, organism-based, Macaca fascicularis, Kidney; details: in vivo
# [25] = Plasma protein binding in Beagle dog at 0.5 to 5 ug/ml by equilibrium dialysis method; format: ADME, cell-free, Canis lupus familiaris; details: read-out: PPB (converted)
# [26] = Volume of distribution at steady state in Sprague-Dawley rat at 3 mg/kg, iv administered as single dose by LC/MS/MS analysis; format: ADME, organism-based; details: in vivo, read-out: Vdss
# [27] = Cmax in Sprague-Dawley rat at 5 mg/kg, po administered as single dose by LC/MS/MS analysis; format: ADME, organism-based; set-up: dose 5 mg/kg, route oral; details: in vivo
# [28] = Volume of distribution at steady state in Beagle dog at 3 mg/kg, iv administered as single dose by LC/MS/MS analysis; format: ADME, organism-based, Canis lupus familiaris; details: in vivo, read-out: Vdss
# [29] = Intrinsic clearance in cynomolgus monkey liver microsomes assessed per gram of liver at 0.5 uM by LC/MS/MS analysis; format: ADME, Macaca fascicularis
# [30] = Terminal half life in cynomolgus monkey at 3 mg/kg, iv administered as single dose by LC/MS/MS analysis; format: ADME, organism-based, Macaca fascicularis; details: in vivo, read-out: beta t1/2 (converted)
# [31] = Plasma protein binding in Sprague-Dawley rat at 0.5 to 5 ug/ml by equilibrium dialysis method; format: ADME, cell-free; details: read-out: PPB (converted)
# Cynomolgus monkey [32] = assay: AUC in cynomolgus monkey at 5 mg/kg, po administered as single dose by LC/MS/MS analysis; format: ADME, organism-based, Macaca fascicularis; details: in vivo
# [33] = biological target: Voltage-gated inwardly rectifying potassium channel KCNH2 (Homo sapiens, UniProt Q12809); assay: Inhibition of human ERG
# Sequence of Voltage-gated inwardly rectifying potassium channel KCNH2 (Q12809 whole entry): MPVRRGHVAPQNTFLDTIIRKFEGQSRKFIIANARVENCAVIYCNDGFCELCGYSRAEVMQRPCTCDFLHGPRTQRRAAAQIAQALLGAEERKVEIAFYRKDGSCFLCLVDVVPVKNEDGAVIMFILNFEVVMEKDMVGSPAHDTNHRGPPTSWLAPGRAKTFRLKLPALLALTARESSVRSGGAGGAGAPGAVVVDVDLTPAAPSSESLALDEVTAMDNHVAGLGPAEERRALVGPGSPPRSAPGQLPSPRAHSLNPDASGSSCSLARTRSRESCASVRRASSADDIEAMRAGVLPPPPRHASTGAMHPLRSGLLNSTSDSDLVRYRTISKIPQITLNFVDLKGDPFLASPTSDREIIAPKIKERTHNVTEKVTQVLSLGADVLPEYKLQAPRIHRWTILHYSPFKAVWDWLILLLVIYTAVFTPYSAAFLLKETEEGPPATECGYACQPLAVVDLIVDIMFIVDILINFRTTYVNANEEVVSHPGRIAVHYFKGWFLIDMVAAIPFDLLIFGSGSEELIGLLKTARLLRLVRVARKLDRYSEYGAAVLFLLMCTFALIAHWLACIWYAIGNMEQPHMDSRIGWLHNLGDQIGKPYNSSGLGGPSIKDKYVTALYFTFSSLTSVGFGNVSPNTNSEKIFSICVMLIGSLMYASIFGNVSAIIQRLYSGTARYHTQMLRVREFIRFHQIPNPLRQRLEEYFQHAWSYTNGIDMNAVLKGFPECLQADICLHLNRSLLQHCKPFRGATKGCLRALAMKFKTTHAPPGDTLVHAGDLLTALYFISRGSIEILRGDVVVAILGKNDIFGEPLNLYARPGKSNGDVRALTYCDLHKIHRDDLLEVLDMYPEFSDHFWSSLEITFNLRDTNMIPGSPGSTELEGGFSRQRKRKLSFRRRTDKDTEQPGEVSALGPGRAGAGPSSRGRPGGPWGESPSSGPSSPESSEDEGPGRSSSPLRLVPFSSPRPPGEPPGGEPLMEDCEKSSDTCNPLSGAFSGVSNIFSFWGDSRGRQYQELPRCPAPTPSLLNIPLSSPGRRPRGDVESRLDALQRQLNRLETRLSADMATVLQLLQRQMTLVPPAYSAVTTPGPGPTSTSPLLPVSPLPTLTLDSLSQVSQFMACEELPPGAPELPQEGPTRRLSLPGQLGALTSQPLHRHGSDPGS
smiles,measurement,setting,value
Cc1cc(F)c2c3c1ccc(=O)n3C[C@H]2CN1CCC(NCc2cc3c(nn2)OCCO3)CC1,MIC,Haemophilus influenzae,2 µg/mL
same,IC50,[1],0.099 µg/mL
same,MIC,Staphylococcus aureus,0.06 µg/mL
same,MIC,Streptococcus pneumoniae [2],0.5 µg/mL
N#Cc1ccc2ccc(=O)n3c2c1[C@H](CN1CCC(NCc2cc4c(nn2)OCCO4)CC1)C3,MIC,Haemophilus influenzae,2 µg/mL
same,IC50,[1],0.062 µg/mL
same,MIC,Staphylococcus aureus,0.25 µg/mL
same,MIC,Streptococcus pneumoniae [2],0.5 µg/mL
COc1ccc2ccc(=O)n3c2c1[C@H](CN1CCC(NCc2cc4c(nn2)OCCO4)CC1)C3,MIC,Haemophilus influenzae,16 µg/mL
same,IC50,[1],0.276 µg/mL
same,MIC,Staphylococcus aureus,2 µg/mL
same,MIC,Streptococcus pneumoniae [2],8 µg/mL
O=c1ccc2ccc(F)c3c2n1C[C@H]3CN1CCCC(CNCc2cc3c(nn2)OCCO3)C1 (stereo partly specified),MIC,Haemophilus influenzae,> 16 µg/mL
same,IC50,[1],0.666 µg/mL
same,MIC,Staphylococcus aureus,1 µg/mL
same,MIC,Streptococcus pneumoniae [2],4 µg/mL
O=c1ccc2ccc(F)c3c2n1C[C@H]3CN1CCC(NCc2cc3c(nn2)OCCO3)CC1 [GSK-945237],MIC,Haemophilus influenzae,1 µg/mL
same,Activity,Streptococcus pneumoniae [3],Active
same,half-life,[4],8.8 h
same,AUC,Rattus norvegicus [5],290 ng·h/mL
same,half-life,[6],1.9 h
same,CL,Rattus norvegicus [7],100%
same,F,Canis familiaris [8],100%
same,CLint,Liver microsome [9],< 0.6 mL/min/g
same,F,Cynomolgus monkey [10],34%
same,Cmax,[11],3000 ng/mL
same,IC50,[1],0.034 µg/mL
same,F,Rattus norvegicus [12],22%
same,Cmax,[13],210 ng/mL
same,CL,Canis familiaris [14],40%
same,MIC,Staphylococcus aureus,0.06 µg/mL
same,Cmax,[15],1070 ng/mL
same,CLint,Liver microsome [16],0.7 mL/min/g
same,CL,Canis familiaris [17],74%
same,fraction unbound,[18],0.576
same,Activity,Streptococcus pneumoniae [19],Active
same,AUC,Canis familiaris [20],6050 ng·h/mL
same,Vd,[21],8.2 L/kg
same,AUC,Rattus norvegicus [22],30 ug.hr/ml/day
same,CL,Cynomolgus monkey [23],40%
same,CL,Cynomolgus monkey [24],45%
same,fraction unbound,[25],0.53
same,Vd,[26],7.2 L/kg
same,Cmax,[27],40 ng/mL
same,MIC,Streptococcus pneumoniae [2],0.25 µg/mL
same,Vd,[28],6.1 L/kg
same,CLint,[29],1.5 mL/min/g
same,half-life,[30],7.6 h
same,fraction unbound,[31],0.367
same,AUC,Cynomolgus monkey [32],1190 ng·h/mL
same,IC50,[33],238 µM
O=c1cnc2ccc(F)c3c2n1C[C@H]3CN1CCC(NCc2cc3c(nn2)OCCO3)CC1,MIC,Haemophilus influenzae,0.5 µg/mL
same,IC50,[1],0.036 µg/mL
same,MIC,Staphylococcus aureus,0.06 µg/mL
COc1c(N2C[C@@H]3CCCN[C@@H]3C2)c(F)cc2c(=O)c(C(=O)O)cn(C3CC3)c12 [MOXIFLOXACIN],Activity,Streptococcus pneumoniae [19],inactive
same,MIC,Streptococcus pneumoniae [2],4 µg/mL
O=c1ccc2ccc(F)c3c2n1C[C@@H]3CN1CCC(NCc2cc3c(nn2)OCCO3)CC1,MIC,Haemophilus influenzae,> 16 µg/mL
same,IC50,[1],0.121 µg/mL
same,MIC,Staphylococcus aureus,2 µg/mL
same,MIC,Streptococcus pneumoniae [2],8 µg/mL
O=c1ccc2cccc3c2n1C[C@H]3CN1CCC(NCc2cc3c(nn2)OCCO3)CC1,MIC,Haemophilus influenzae,2 µg/mL
same,MIC,Staphylococcus aureus,0.5 µg/mL
same,MIC,Streptococcus pneumoniae [2],1 µg/mL
Cc1ccc2ccc(=O)n3c2c1[C@H](CN1CCC(NCc2cc4c(nn2)OCCO4)CC1)C3,MIC,Haemophilus influenzae,4 µg/mL
same,IC50,[1],0.076 µg/mL
same,MIC,Staphylococcus aureus,0.25 µg/mL
same,MIC,Streptococcus pneumoniae [2],1 µg/mL
O=C1CC(NCc2cc3c(nn2)OCCO3)CCN1C[C@@H]1Cn2c(=O)ccc3ccc(F)c1c32 (stereo partly specified),MIC,Haemophilus influenzae,> 16 µg/mL
same,IC50,[1],0.166 µg/mL
same,MIC,Staphylococcus aureus,16 µg/mL
same,MIC,Streptococcus pneumoniae [2],16 µg/mL
